In patent publication US20130316006A1, “PARTICLES, COMPOSITIONS AND METHODS FOR OPHTHALMIC AND/OR OTHER APPLICATIONS” (Kala Pharmaceuticals, Inc., priority 2012, published 2013):

Legend:
VEGF = assay: Rabbit VEGF-challenge model, leakage by fluorescein angiography; format: in vivo, Dutch belted rabbits; details: axitinib-MPP 5%, 50 μL every 4 hours days 1-6; Avastin one intravitreal injection day 1; VEGF day 3; angiography day 6
Source text: On day 3, the rabbits received an intravitreal injection of VEGF. On day 6, the rabbits were accessed for leakage via fluorescein angiography.
In this model, Dutch belted rabbits were given an intravitreal injection of VEGF to stimulate vascular growth. Fluorescein angiography was used to determine the degree to which the rabbits developed abnormal vascular and leakage.

[1] = Chemical stability of LE formulations to 25 kGy gamma irradiation (degradant concentrations); format: physicochemical
Protocol: Gamma irradiation of a formulation can cause chemical degradation and free radical generation and is a concern especially in aqueous formulations. LE is a soft steroid designed to metabolize via the hydrolytic or enzymatic cleavage of two ester bonds into PJ-91 and PJ-90. […] The concentrations of the degradants were measured immediately after being subjected to gamma irradiation (“Gamma irradiated initial”) and 4 weeks after being subjected to gamma irradiation (“gamma irradiated after 4 weeks”) using a Cobalt 60 gamma irradiation source at a dose of 25 kGy. […] [table]

physchem = details: 25 °C, water

Avastin®: bevacizumab; positive control, one intravitreal injection
Vessel growth and vascular leakage after intravitreal VEGF (VEGF): no change in retinal vasculature

CCOC(=O)O[C@]1(C(=O)OCCl)CC[C@H]2[C@@H]3CCC4=CC(=O)C=C[C@]4(C)[C@H]3[C@@H](O)C[C@@]21C [LE, loteprednol etabonate]
Amount of tetradeca when LE is gamma-irradiated [1]: above 1%

Nc1c(CC(=O)O)cccc1C(=O)c1ccc(Br)cc1 [bromfenac calcium]
solubility (physchem): ~150 µg/mL
